Results reported in patent publication US20070148184A1, “Survivin-derived peptides and use thereof” (priority 2003, published 2007).
Read-outs that look alike come from different tables or passages of the source. One block for each compound: values may come before it. No end group written: not given here.

Tests used:
HLA-A3 = HLA-A3 (Homo sapiens, UniProt P04439); experiment: Assembly assay, HLA-A3; type: binding; conditions: for EC50: Table 4, HLA-A3, read-out: C50
Procedure: (§1) The binding affinity of synthetic peptides (Invitrogen, Carlsbad, Calif., USA) to HLA-A1, -A2, A3, or -A11 molecules metabolically labeled with [^35S]-methionine was measured in the assembly assay, as described previously (12). The assay is based on peptide-mediated stabilization of empty HLA molecules released upon cell lysis, from the TAP-deficient cell lines. Stably folded HLA-molecules were immune-precipitated using the HLA class I-specific, conformation-dependent mAb W6/32, and separated by isoelectric focusing (IEF) gel electrophoresis. MHC heavy chain bands were quantified using the ImageGauge Phosphorimager program (FUJI photo film Co., Carrollton, Tex., USA). The intensity of the band is proportional to the amount of peptide-bound class I MHC complex recovered during the assay. Subsequently, the extent of stabilization of the HLA-molecule is directly related to the binding affinity of the added peptide. The peptide concentration used to analyze the recovery of the HLA-molecules was 40, 4, 0.4, 0.04 μM for HLA-A1 and HLA-A11, and 100, 10, 1, 0.1, 0.01 μM for HLA-A2 and HLA-A3. The C50 value was subsequently calculated for each peptide as the peptide concentration sufficient for half maximal stabilization.

[1] = test system: peptide epitope-specific interferon-γ releasing effector cells; experiment: IFN-γ ELISPOT, Example 4 (PBL or TIL from cancer patients); type: cell-based, human
Procedure: To extend the sensitivity of the ELISPOT assay, PBL were stimulated once in vitro prior to analysis. At day 0, PBL or crushed lymph nodes were thawed and plated as 2×10^6 cells in 2 ml/well in 24-well plates (Nunc, Roskilde, Denmark) in x-vivo medium (Bio Whittaker, Walkersville, Md.), […] heat-inactivated human serum, and 2 mM of L-glutamine in the presence of 10 μM of peptide. Two days later 20 IU/ml recombinant interleukin-2 (IL-2) (Chiron, Ratingen, Germany) was added to the cultures. The cultured cells were tested for reactivity in the ELISPOT on day 10.
The ELISPOT assay was used to quantify peptide epitope-specific interferon-γ releasing effector cells as previously described (16). Briefly, nitrocellulose bottomed 96-well plates (MultiScreen MAIP N45, Millipore, Hedehusene, Denmark) were coated with anti-IFN-γ antibody (1-D1K, Mabtech, Nacka, Sweden). The wells were washed, blocked by X-vivo medium, and the cells were added in duplicates at different cell concentrations. The peptides were then added to each well and the plates were incubated overnight. The following day, media was discarded and the wells were washed prior to addition of biotinylated secondary antibody (7-B6-1-Biotin, Mabtech). The plates were incubated for 2 hours, washed, and avidin-alkaline phosphatase conjugate (Calbiochem, Life Technologies, Inc. San Diego, Calif., USA) was added to each well. The plates were incubated at room temperature for one hour, washed, and the enzyme substrate NBT/BCIP (DakoCytomation Norden A/S, Glostrup, Denmark) was added to each well and incubated at RT for 5-10 min. Upon the emergence of dark purple spots, the reaction was terminated by washing with tap-water. The spots were counted using the ImmunoSpot® Series 2.0 Analyzer (CTL Analyzers, LLC, Cleveland, US) and the peptide specific CTL frequency could be calculated from the numbers of spot-forming cells. All assays were performed in duplicates for each peptide antigen.

HLA-A1 = target: T1, HLA-A1 (Homo sapiens, UniProt P04439, A114D/A174V/A182V/D101N/D185E/E176A/E190D/L180R/Q94H/R68K/S129P/T187R/V100A/V91M/W191G); experiment: Assembly assay, HLA-A1; type: binding; conditions: for EC50: Table 4, HLA-A1, read-out: C50
T1 construct: empty HLA molecules released upon cell lysis, from the TAP-deficient cell lines; endogenous in cells; host or cells: BM36.1 (TAP-defective cell line expressing HLA-A*0101 and HLA-B*3501)
Procedure: as §1

HLA-A11 = HLA-A11 (Homo sapiens, UniProt P04439, A114D/D185E/E176A/F33Y/L180Q/S129P/T187R); experiment: Assembly assay, HLA-A11; type: binding
Procedure: as §1

HLA-B7 = HLA-B7 (Homo sapiens, UniProt P01889); experiment: Assembly assay, HLA-B7; type: binding
Procedure: as §1
Binding of survivin derived peptides to HLA-B7 The amino acid sequence of the survivin protein was screened for peptides of nine to ten amino acids, with anchor residues according to the peptide binding motif of HLA-B7. Five peptides were selected and analyzed for their ability to stabilize HLA-B7 in the assembly assay. C50 values were estimated for each peptide as the peptide concentration needed for half maximal stabilization of HLA-B7 (table 4).

[2] = HLA-A3, nine samples from melanoma patients (five PBL and four TIL)

binding to HLA-A3, in words (HLA-A3): high affinity
EC50 (HLA-A3): 20 nM
Compound: CC[C@H](C)[C@H](NC(=O)[C@@H](N)CCCNC(=N)N)C(=O)N[C@@H](CO)C(=O)N[C@H](C(=O)N[C@@H](Cc1ccccc1)C(=O)N[C@@H](CCCCN)C(=O)N[C@@H](CC(N)=O)C(=O)N[C@@H](Cc1c[nH]c2ccccc12)C(=O)N1CCC[C@H]1C(=O)N[C@@H](CCCCN)C(=O)O)[C@@H](C)O [Sur18K10]
ELISPOT response [1, 2]: CTL reactivity was detected
responding patients ([1]; HLA-A3, twenty-seven melanoma patients analyzed): six

EC50 (HLA-A1): 800 nM
Compound: CC[C@H](C)[C@H](NC(=O)[C@H](Cc1ccccc1)NC(=O)CNC(=O)[C@H](C)NC(=O)[C@H](CCC(=O)O)NC(=O)[C@H](C)NC(=O)[C@@H](N)CCSC)C(=O)N[C@@H](Cc1c[nH]cn1)C(=O)N[C@@H](Cc1ccc(O)cc1)C(=O)O [Sur38Y9]

EC50 (HLA-A1): 400 nM
Compound: CC(C)C[C@H](NC(=O)[C@H](CC(=O)O)NC(=O)[C@@H]1CCCN1C(=O)[C@H](CCC(=O)O)NC(=O)[C@H](CC(N)=O)NC(=O)[C@H](CCC(=O)O)NC(=O)[C@@H](NC(=O)[C@@H]1CCCN1)[C@@H](C)O)C(=O)N[C@@H](C)C(=O)N[C@@H](Cc1ccc(O)cc1)C(=O)O [Sur47Y10]

binding to HLA-A3, in words (HLA-A3): high affinity
Compound: CC(C)C[C@H](NC(=O)[C@@H](N)CC(C)C)C(=O)N[C@@H](CCC(N)=O)C(=O)N[C@@H](CS)C(=O)N[C@@H](Cc1ccccc1)C(=O)N[C@@H](Cc1ccccc1)C(=O)N[C@@H](CS)C(=O)N[C@@H](Cc1ccccc1)C(=O)N[C@@H](CCCCN)C(=O)O [Sur54L2]
ELISPOT response [1, 2]: No responses were detected

EC50 (HLA-A1): 2000 nM
Compound: CC(C)C[C@H](NC(=O)[C@H](CCC(=O)O)NC(=O)[C@H](CCC(=O)O)NC(=O)[C@H](Cc1ccccc1)NC(=O)[C@@H](N)CCC(N)=O)C(=O)N[C@H](C(=O)N[C@@H](CC(C)C)C(=O)NCC(=O)N[C@@H](CCC(=O)O)C(=O)N[C@@H](Cc1ccccc1)C(=O)O)[C@@H](C)O [Sur92-101]
binding to HLA-A1, in words (HLA-A1): bound with almost similar high affinity as a known positive control epitope
ELISPOT response ([1]; HLA-A1, Mel.A1-2): showed responses
ELISPOT response ([1]; HLA-A1, Mel.A1-3, PBL): T-cell response

EC50 (HLA-A1): 100000 nM
Compound: CC(C)C[C@H](NC(=O)[C@H](CCC(=O)O)NC(=O)[C@H](CCC(=O)O)NC(=O)[C@H](CO)NC(=O)[C@@H](N)CCC(N)=O)C(=O)N[C@H](C(=O)N[C@@H](CC(C)C)C(=O)NCC(=O)N[C@@H](CCC(=O)O)C(=O)N[C@@H](Cc1ccccc1)C(=O)O)[C@@H](C)O [Sur92S2]

EC50 (HLA-A1): 2000 nM
Compound: CC(C)C[C@H](NC(=O)[C@H](CCC(=O)O)NC(=O)[C@H](CCC(=O)O)NC(=O)[C@@H](NC(=O)[C@@H](N)CCC(N)=O)[C@@H](C)O)C(=O)N[C@H](C(=O)N[C@@H](CC(C)C)C(=O)NCC(=O)N[C@@H](CCC(=O)O)C(=O)N[C@@H](Cc1ccccc1)C(=O)O)[C@@H](C)O [Sur92T2]

binding to HLA-A1, in words (HLA-A1): low binding affinity
EC50 (HLA-A1): > 100000 nM
Compound: CC(C)C[C@H](NC(=O)[C@H](CCC(=O)O)NC(=O)[C@H](CCC(=O)O)NC(=O)[C@@H](N)Cc1ccccc1)C(=O)N[C@H](C(=O)N[C@@H](CC(C)C)C(=O)NCC(=O)N[C@@H](CCC(=O)O)C(=O)N[C@@H](Cc1ccccc1)C(=O)O)[C@@H](C)O [Sur93-101]
ELISPOT response ([1]; HLA-A1, ten melanoma patients, data not shown): no peptide-specific responses were detected

EC50 (HLA-A1): 30000 nM
Compound: CC(C)C[C@H](NC(=O)[C@H](CCC(=O)O)NC(=O)[C@H](CO)NC(=O)[C@@H](N)Cc1ccccc1)C(=O)N[C@H](C(=O)N[C@@H](CC(C)C)C(=O)NCC(=O)N[C@@H](CCC(=O)O)C(=O)N[C@@H](Cc1ccccc1)C(=O)O)[C@@H](C)O [Sur93S2]

binding to HLA-A1, in words (HLA-A1): bound with high affinity
EC50 (HLA-A1): 1000 nM
Compound: CC(C)C[C@H](NC(=O)[C@H](CCC(=O)O)NC(=O)[C@@H](NC(=O)[C@@H](N)Cc1ccccc1)[C@@H](C)O)C(=O)N[C@H](C(=O)N[C@@H](CC(C)C)C(=O)NCC(=O)N[C@@H](CCC(=O)O)C(=O)N[C@@H](Cc1ccccc1)C(=O)O)[C@@H](C)O [Sur93T2]
ELISPOT response ([1]; HLA-A1, Mel.A1-2): showed responses
ELISPOT response ([1]; HLA-A1, Mel.A1-3, PBL): T-cell response
ELISPOT response ([1]; HLA-A1, Mel.A1-4/PBL): responses were observed

binding to HLA-A11, in words (HLA-A11): high affinity
binding to HLA-A3, in words (HLA-A3): bound weakly
Compound: CC(C)C[C@H](NC(=O)[C@@H](N)CC(=O)O)C(=O)N[C@@H](C)C(=O)N[C@@H](CCC(N)=O)C(=O)N[C@@H](CS)C(=O)N[C@@H](Cc1ccccc1)C(=O)N[C@@H](Cc1ccccc1)C(=O)N[C@@H](CS)C(=O)N[C@@H](Cc1ccccc1)C(=O)N[C@@H](CCCCN)C(=O)O [Sur 53-62]
ELISPOT response [1, 2]: no immune responses
ELISPOT response ([1]; HLA-A11, Mel.A11-1, five blood samples over two years, data not shown): strong immune response
ELISPOT response ([1]; HLA-A11, PBL from Mel.A11-1 and Mel.A11-2): detect responses
ELISPOT response ([1]; HLA-A11, TIL from tumor infiltrated lymph node, Mel.A11-2): able to detect Sur53-62 specific T-cells

binding to HLA-A11, in words (HLA-A11): high affinity
Compound: CC(C)C[C@H](N)C(=O)N[C@@H](C)C(=O)N[C@@H](CCC(N)=O)C(=O)N[C@@H](CS)C(=O)N[C@@H](Cc1ccccc1)C(=O)N[C@@H](Cc1ccccc1)C(=O)N[C@@H](CS)C(=O)N[C@@H](Cc1ccccc1)C(=O)N[C@@H](CCCCN)C(=O)O [Sur 54-62]

binding to HLA-A3, in words (HLA-A3): bound weakly
EC50 (HLA-A3): > 100000 nM
Compound: CC(C)C[C@H](NC(=O)[C@H](Cc1ccccc1)NC(=O)[C@H](CCC(=O)O)NC(=O)CNC(=O)[C@H](CC(C)C)NC(=O)[C@@H](NC(=O)[C@H](CC(C)C)NC(=O)[C@@H](N)CCC(=O)O)[C@@H](C)O)C(=O)N[C@@H](CCCCN)C(=O)O [Sur 95-103]
ELISPOT response [1, 2]: no immune responses

binding to HLA-A11, in words (HLA-A11): high affinity
EC50 (HLA-A11; Table 4, HLA-A11, read-out: C50): 1000 nM
binding to HLA-A3, in words (HLA-A3): high affinity
EC50 (HLA-A3): 2000 nM
Compound: CC[C@H](C)[C@H](NC(=O)[C@@H](N)CCCCN)C(=O)N[C@@H](C)C(=O)N[C@@H](CCCCN)C(=O)N[C@@H](CCC(=O)O)C(=O)N[C@H](C(=O)N[C@@H](CC(N)=O)C(=O)N[C@@H](CC(N)=O)C(=O)N[C@@H](CCCCN)C(=O)O)[C@@H](C)O [Sur 112-120]
ELISPOT response [1, 2]: no immune responses

C50 (half maximal stabilization of HLA-B7) (HLA-B7; Example 4): did not bind
EC50 (HLA-B7; Table 4, HLA-B7, read-out: C50): > 100000 nM
Compound: CPTENEPDL [Sur46-54]

binding to HLA-A1, in words (HLA-A1): non-binding
Compound: ENEPDLAQCF [Sur49-58]

C50 (half maximal stabilization of HLA-B7) (HLA-B7; Example 4): did not bind
EC50 (HLA-B7; Table 4, HLA-B7, read-out: C50): > 100000 nM
Compound: EPDLAQCFF [Sur51-59]

EC50 (HLA-B7; Example 4, read-out: C50 (half maximal stabilization of HLA-B7)): > 100000 nM
EC50 (HLA-B7; Table 4, HLA-B7, read-out: C50): > 100000 nM
Compound: LPPAWQPFL [Sur6-14]

Compound: QPRAPIRPI [C6, reference compound]
EC50 (HLA-B7): 100 nM

Compound: RPPIFIRRL [C7, reference compound]
EC50 (HLA-B7): 500 nM
